According to US10604524B2, “Pyrropyrimidine compounds as MNKs inhibitors” (LIFEARC, priority 2015, dated 2020):

Legend:
Experiment in all cases: Kinase selectivity screen
SRPK1 = SRPK1 (Homo sapiens, UniProt Q96SB4); conditions: read-out: % Inhibition SRPK1
TYRO3 = TYRO3 (Homo sapiens, UniProt Q06418); conditions: read-out: % Inhibition TYRO3
STK4 = STK4 (Homo sapiens, UniProt Q13043); conditions: read-out: % Inhibition STK4
FGFR3 = FGFR3 (Homo sapiens, UniProt P22607); conditions: read-out: % Inhibition FGFR3
FGFR1 = FGFR1 (Homo sapiens, UniProt P11362); conditions: read-out: % Inhibition FGFR1
ALK = ALK (Homo sapiens, UniProt Q9UM73); conditions: read-out: % Inhibition ALK
TBK1 = TBK1 (Homo sapiens, UniProt Q9UHD2); conditions: read-out: % Inhibition TBK1
FLT3 = FLT3 (Homo sapiens, UniProt P36888); conditions: read-out: % Inhibition FLT3
MST1R = MST1R (Homo sapiens, UniProt Q04912); conditions: read-out: % Inhibition MST1R
MKNK2 = MKNK2 (Homo sapiens, UniProt Q9HBH9); format: biochemical; conditions: 1 μM compound
MAP2K1 = MAP2K1 (Homo sapiens, UniProt Q02750); conditions: read-out: % Inhibition MAP2K1
MAPKAPK2 = MAPKAPK2 (Homo sapiens, UniProt P49137); conditions: read-out: % Inhibition MAPKAPK2
Sequence of MAPKAPK2 (P49137 whole entry, species assumed): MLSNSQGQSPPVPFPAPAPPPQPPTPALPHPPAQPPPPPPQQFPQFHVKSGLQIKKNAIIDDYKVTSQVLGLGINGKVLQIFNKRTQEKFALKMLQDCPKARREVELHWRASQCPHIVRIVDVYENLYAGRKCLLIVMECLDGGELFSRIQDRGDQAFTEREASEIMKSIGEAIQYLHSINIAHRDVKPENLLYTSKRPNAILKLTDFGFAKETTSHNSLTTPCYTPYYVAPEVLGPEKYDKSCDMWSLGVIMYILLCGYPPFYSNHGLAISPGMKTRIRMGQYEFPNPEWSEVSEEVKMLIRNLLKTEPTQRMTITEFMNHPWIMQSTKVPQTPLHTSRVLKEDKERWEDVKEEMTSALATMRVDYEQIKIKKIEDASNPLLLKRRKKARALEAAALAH

FER = FER (Homo sapiens, UniProt P16591); conditions: read-out: % Inhibition FER
Sequence of FER (P16591 whole entry, species assumed): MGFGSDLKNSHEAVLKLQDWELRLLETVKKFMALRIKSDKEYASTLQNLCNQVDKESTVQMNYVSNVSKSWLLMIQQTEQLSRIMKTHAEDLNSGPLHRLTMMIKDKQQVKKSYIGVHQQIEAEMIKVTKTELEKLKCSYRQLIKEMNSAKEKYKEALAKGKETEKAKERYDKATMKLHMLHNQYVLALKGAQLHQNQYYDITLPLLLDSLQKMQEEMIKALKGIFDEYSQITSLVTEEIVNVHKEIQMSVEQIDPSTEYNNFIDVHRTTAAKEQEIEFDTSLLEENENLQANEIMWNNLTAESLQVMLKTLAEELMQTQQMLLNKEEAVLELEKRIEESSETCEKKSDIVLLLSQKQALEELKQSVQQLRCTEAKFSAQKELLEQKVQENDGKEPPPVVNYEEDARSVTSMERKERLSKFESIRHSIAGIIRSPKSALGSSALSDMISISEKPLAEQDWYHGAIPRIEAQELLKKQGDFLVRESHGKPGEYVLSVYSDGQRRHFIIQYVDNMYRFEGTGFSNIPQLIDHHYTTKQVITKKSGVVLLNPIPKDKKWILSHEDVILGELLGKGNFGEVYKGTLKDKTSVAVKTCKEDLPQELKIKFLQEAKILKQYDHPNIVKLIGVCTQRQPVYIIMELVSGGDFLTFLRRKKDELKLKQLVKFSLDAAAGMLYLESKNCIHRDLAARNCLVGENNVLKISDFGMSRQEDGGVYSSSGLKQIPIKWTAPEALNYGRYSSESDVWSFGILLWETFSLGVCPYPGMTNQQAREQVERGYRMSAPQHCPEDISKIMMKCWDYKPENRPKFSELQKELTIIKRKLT

PRKACA = PRKACA (Homo sapiens, UniProt P17612); conditions: read-out: % Inhibition PRKACA
MAP3K9 = MAP3K9 (Homo sapiens, UniProt P80192); conditions: read-out: % Inhibition MAP3K9
EPHA5 = EPHA5 (Homo sapiens, UniProt P54756); conditions: read-out: % Inhibition EPHA5
CSF1R = CSF1R (Homo sapiens, UniProt P07333); conditions: read-out: % Inhibition CSF1R
RAF1 = RAF1 (Homo sapiens, UniProt P04049); conditions: read-out: % Inhibition RAF1
Sequence of RAF1 (P04049 whole entry, species assumed): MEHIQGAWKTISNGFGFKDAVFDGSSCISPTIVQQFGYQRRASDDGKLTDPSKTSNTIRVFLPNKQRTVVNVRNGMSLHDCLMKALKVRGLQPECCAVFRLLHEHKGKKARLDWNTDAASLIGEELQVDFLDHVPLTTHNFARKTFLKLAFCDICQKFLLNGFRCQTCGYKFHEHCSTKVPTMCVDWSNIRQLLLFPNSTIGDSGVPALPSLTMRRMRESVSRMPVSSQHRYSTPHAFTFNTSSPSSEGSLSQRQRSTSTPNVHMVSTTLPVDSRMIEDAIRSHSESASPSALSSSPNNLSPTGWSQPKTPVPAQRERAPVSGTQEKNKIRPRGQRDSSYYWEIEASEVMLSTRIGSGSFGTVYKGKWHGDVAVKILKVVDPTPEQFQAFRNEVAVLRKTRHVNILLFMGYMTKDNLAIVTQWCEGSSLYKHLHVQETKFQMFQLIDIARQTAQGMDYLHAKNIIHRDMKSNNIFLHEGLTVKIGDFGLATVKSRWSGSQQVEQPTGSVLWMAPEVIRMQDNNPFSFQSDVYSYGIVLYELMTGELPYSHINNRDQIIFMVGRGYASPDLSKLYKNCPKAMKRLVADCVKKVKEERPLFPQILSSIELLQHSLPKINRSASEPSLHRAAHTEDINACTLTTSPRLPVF

PAK4 = PAK4 (Homo sapiens, UniProt O96013); conditions: read-out: % Inhibition PAK4
Sequence of PAK4 (O96013 whole entry, species assumed): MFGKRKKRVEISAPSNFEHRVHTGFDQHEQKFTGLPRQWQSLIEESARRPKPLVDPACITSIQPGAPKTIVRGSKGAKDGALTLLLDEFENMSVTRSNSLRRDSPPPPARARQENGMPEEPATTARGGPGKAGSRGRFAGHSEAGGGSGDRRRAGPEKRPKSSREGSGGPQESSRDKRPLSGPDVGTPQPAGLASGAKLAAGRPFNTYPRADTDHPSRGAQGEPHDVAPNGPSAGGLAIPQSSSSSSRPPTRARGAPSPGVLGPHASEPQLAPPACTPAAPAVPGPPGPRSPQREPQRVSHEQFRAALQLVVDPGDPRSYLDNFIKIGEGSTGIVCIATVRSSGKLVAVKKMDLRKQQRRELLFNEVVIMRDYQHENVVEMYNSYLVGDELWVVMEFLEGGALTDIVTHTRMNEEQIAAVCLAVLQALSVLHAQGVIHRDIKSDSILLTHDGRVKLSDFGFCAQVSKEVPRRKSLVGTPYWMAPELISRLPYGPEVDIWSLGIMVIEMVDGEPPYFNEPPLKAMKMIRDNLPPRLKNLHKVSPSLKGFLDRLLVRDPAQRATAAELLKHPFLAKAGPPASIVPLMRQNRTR

PDPK1 = PDPK1 (Homo sapiens, UniProt O15530); conditions: read-out: % Inhibition PDPK1
PIP5K1A = PIP5K1A (Homo sapiens, UniProt Q99755); conditions: read-out: % Inhibition PIP5K1A
PIP5K1C = PIP5K1C (Homo sapiens, UniProt O60331); conditions: read-out: % Inhibition PIP5K1C
PRKCQ = PRKCQ (Homo sapiens, UniProt Q04759); conditions: read-out: % Inhibition PRKCQ
IKBKB = IKBKB (Homo sapiens, UniProt O14920); conditions: read-out: % Inhibition IKBKB
PAK7 = PAK7 (Homo sapiens, UniProt Q9P286); conditions: read-out: % Inhibition PAK7
PRKCE = PRKCE (Homo sapiens, UniProt Q02156); conditions: read-out: % Inhibition PRKCE
PIK3CB = PIK3CB (Homo sapiens, UniProt P42338); conditions: read-out: % Inhibition PIK3CB
MTOR = MTOR (Homo sapiens, UniProt P42345); conditions: read-out: % Inhibition MTOR
ERBB4 = ERBB4 (Homo sapiens, UniProt Q15303); conditions: read-out: % Inhibition ERBB4
TGFBR1 = TGFBR1 (Homo sapiens, UniProt P36897); conditions: read-out: % Inhibition TGFBR1
Sequence of TGFBR1 (P36897 34-503, species assumed): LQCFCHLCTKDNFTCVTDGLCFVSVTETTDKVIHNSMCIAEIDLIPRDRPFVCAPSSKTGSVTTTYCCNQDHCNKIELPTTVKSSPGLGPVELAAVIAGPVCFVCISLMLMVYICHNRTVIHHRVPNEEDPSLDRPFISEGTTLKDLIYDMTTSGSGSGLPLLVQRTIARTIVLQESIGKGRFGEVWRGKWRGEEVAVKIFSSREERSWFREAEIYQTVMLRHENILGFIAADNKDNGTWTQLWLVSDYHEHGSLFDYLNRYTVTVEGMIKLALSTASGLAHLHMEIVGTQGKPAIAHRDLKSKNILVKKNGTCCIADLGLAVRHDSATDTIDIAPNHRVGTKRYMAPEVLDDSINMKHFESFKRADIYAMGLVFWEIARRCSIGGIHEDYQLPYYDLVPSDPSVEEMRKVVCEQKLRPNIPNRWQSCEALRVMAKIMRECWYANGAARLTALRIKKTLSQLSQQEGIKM

STK11 = STK11 (Homo sapiens, UniProt Q15831); conditions: read-out: % Inhibition STK11
PRKCA = PRKCA (Homo sapiens, UniProt P17252); conditions: read-out: % Inhibition PRKCA
YES1 = YES1 (Homo sapiens, UniProt P07947); conditions: read-out: % Inhibition YES1
Sequence of YES1 (P07947 whole entry, species assumed): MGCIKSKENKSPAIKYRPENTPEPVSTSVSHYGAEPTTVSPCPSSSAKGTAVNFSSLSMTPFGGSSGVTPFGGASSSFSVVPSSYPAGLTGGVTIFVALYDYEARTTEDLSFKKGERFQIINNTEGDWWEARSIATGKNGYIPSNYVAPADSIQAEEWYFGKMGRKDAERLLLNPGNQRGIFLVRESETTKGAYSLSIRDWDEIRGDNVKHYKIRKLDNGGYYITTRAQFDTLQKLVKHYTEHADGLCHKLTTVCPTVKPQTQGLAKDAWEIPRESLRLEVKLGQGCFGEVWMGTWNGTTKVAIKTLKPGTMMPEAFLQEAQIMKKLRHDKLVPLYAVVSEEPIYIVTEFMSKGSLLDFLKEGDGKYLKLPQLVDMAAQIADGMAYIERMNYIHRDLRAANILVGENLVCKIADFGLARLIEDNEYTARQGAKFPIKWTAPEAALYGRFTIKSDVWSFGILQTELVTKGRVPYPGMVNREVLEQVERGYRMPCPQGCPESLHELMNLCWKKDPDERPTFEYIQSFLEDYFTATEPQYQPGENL

PTK2 = PTK2 (Homo sapiens, UniProt Q05397); conditions: read-out: % Inhibition PTK2
Sequence of PTK2 (Q05397 whole entry, species assumed): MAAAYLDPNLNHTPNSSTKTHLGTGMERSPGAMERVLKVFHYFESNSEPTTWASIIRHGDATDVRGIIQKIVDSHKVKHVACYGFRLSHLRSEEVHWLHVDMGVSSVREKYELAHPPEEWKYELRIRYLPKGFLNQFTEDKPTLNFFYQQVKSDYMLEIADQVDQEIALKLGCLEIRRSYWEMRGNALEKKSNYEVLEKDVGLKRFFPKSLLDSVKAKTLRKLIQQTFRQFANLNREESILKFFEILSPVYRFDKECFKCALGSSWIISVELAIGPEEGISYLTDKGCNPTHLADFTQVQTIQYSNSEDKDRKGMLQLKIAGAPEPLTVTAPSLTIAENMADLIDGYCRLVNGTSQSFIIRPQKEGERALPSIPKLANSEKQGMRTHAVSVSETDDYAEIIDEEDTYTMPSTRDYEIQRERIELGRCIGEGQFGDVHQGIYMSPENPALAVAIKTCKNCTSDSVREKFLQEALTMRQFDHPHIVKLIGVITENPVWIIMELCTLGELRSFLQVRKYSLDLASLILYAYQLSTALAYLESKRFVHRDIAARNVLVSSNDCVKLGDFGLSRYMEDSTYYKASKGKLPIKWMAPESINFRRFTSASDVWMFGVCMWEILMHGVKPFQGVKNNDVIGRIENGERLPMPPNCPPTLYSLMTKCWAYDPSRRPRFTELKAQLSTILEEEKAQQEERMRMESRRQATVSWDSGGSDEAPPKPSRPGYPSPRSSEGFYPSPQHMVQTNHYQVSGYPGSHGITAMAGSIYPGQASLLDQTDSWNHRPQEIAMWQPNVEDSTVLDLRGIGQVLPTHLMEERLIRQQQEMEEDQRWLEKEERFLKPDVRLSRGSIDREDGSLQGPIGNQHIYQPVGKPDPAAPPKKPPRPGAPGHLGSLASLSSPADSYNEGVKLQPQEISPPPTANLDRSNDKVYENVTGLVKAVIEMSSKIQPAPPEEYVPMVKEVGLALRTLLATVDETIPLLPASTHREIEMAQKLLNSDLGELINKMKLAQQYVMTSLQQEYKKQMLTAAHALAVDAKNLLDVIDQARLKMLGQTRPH

MARK1 = MARK1 (Homo sapiens, UniProt Q9P0L2); conditions: read-out: % Inhibition MARK1

Sequence of STK4 (Q13043 whole entry, species assumed): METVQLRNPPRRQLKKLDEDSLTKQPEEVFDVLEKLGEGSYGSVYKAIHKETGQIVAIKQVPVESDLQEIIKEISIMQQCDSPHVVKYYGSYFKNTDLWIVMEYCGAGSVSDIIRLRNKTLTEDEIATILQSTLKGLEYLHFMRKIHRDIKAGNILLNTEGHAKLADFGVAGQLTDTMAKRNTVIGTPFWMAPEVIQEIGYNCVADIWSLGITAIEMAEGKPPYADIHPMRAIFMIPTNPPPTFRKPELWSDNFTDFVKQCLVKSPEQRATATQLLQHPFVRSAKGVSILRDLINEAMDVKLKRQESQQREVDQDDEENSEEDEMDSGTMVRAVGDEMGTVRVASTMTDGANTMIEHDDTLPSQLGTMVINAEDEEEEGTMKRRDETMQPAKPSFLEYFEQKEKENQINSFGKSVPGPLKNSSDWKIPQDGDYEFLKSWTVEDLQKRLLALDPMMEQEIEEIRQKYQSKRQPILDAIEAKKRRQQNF

`CC(C)Oc1cc(F)ccc1Nc1ncnc2cc(C(=O)NCCCN(C)C)n(C)c12` [Example 40, N-[3-(dimethylamino)propyl]-4-{[4-fluoro-2-(propan-2-yloxy)phenyl]amino}-5-methyl-5H-pyrrolo[3,2-d]pyrimidine-6-carboxamide] was tested, and the inhibition at 1 µM (SRPK1) was 0%, the inhibition at 1 µM (TYRO3) was 0% and the inhibition at 1 µM (STK4) was 0%. For the same molecule, the inhibition at 1 µM (FGFR3) was 10%, the inhibition at 1 µM (FGFR1) was 0% and the inhibition at 1 µM (ALK) was 0%. It also gave an inhibition at 1 µM (TBK1) of 0%, an inhibition at 1 µM (FLT3) of 24% and an inhibition at 1 µM (MST1R) of 0%. The inhibition at 1 µM (MKNK2) was 84%, the inhibition at 1 µM (MAP2K1) was 0% and the inhibition at 1 µM (MAPKAPK2) was 0%. The inhibition at 1 µM (FER) was 0%, the inhibition at 1 µM (PRKACA) was 0% and the inhibition at 1 µM (MAP3K9) was 0%. The inhibition at 1 µM (EPHA5) was 0%, the inhibition at 1 µM (CSF1R) was 8% and the inhibition at 1 µM (RAF1) was 0%. It also gave an inhibition at 1 µM (PAK4) of 0%, an inhibition at 1 µM (PDPK1) of 0% and an inhibition at 1 µM (PIP5K1A) of 2%. The inhibition at 1 µM (PIP5K1C) was 6%, the inhibition at 1 µM (PRKCQ) was 0% and the inhibition at 1 µM (IKBKB) was 0%. The inhibition at 1 µM (PAK7) was 0%, the inhibition at 1 µM (PRKCE) was 0% and the inhibition at 1 µM (PIK3CB) was 1%. It also gave an inhibition at 1 µM (MTOR) of 0%, an inhibition at 1 µM (ERBB4) of 0% and an inhibition at 1 µM (TGFBR1) of 0%. For the same molecule, the inhibition at 1 µM (STK11) was 0%, the inhibition at 1 µM (PRKCA) was 5% and the inhibition at 1 µM (YES1) was 0%. For the same molecule, the inhibition at 1 µM (PTK2) was 7% and the inhibition at 1 µM (MARK1) was 0%.
